Legend:
Assay in all cases: Ba/F3 drug screening, Cell Titer Glo, IC50 Mut/WT
Format in all cases: cell-based
EGFR E709K = molecular target: T1, EGFR E709K (Homo sapiens, UniProt P00533, E709K); conditions: Ba/F3 cells, EGFR E709K (PACC), Mut/WT
T1 construct: expressed in transfected cells; host or cells: Ba/F3

EGFR N771dupN G724S = molecular target: T2, EGFR N771dupN G724S (Homo sapiens, UniProt P00533, DUP771-771/G724S); conditions: Ex20, 72 hours
T2 construct: expressed in transfected cells; host or cells: Ba/F3 cells, retroviral pBabe-Puro vector (vector made by GeneScript from EGFR G724S, c.2313_2314insAAC)

EGFR T725M = molecular target: T3, EGFR T725M (Homo sapiens, UniProt P00533, T725M); conditions: Classical-Like, 72 hours
T3 construct: expressed in transfected cells; host or cells: Ba/F3 cells, retroviral pBabe-Puro vector (vector made by GeneScript from EGFR WT)
Method: (§1) Data represent the ratio of the IC50 value for a given TKI for cells with a classical-like EGFR mutation to the IC50 value for cells with wildtype EGFR.
(§2) Ba/F3 cell generation, drug screening, and IC50 approximations. Ba/F3 cells were obtained as a gift from Dr. Gordon Mills (MD Anderson Cancer Center), and maintained in RPMI (Sigma) containing 10% FBS, 1% penicillin/streptomycin, and 10 ng/ml recombinant mIL-3 (R&D Biosystems). To establish stable Ba/F3 cell lines, Ba/F3 cells were transduced with retroviruses containing mutant EGFR plasmids for 12-24 hours.
(§3) After 48-72 hours of transduction, 2 μg/ml puromycin (Invitrogen) was added to Ba/F3 cell lines in complete RPMI. To select for EGFR positive cell lines, cells were stained with PE-EGFR (Biolegend) and sorted by FACS. After sorting, EGFR positive cells were maintained in RPMI containing 10% FBS, 1% penicillin/streptomycin, and 1 ng/ml EGF to support cell viability. […] Shortly, cells were plated in 384-well plates (Greiner Bio-One) at 2000-3000 cells per well in technical triplicate. Seven different concentrations of TKIs or DMSO vehicle were added to reach a final volume of 40 μL per well. After 72 hours, 11 μL of Cell Titer Glo (Promega) was added to each well. Plates were incubated for a minimum of 10 minutes, and bioluminescence was determined using a FLUOstar OPTIMA plate reader (BMG LABTECH). Raw bioluminescence values were normalized to DMSO control treated cells, and values were plotted in GraphPad Prism. […] Drug screens were performed in technical triplicate on each plate and either duplicate or triplicate biological replicates.

EGFR L858R/T790M = molecular target: T4, EGFR L858R/T790M (Homo sapiens, UniProt P00533, L858R/T790M); conditions: T790M-like-3S, 72 hours
T4 construct: expressed in transfected cells; host or cells: Ba/F3

EGFR N771dupN = molecular target: T5, EGFR N771dupN (Homo sapiens, UniProt P00533, DUP771-771); conditions: Ex20, 72 hours
T5 construct: expressed in transfected cells; host or cells: Ba/F3 cells, retroviral pBabe-Puro vector

EGFR R776C = molecular target: T6, EGFR R776C (Homo sapiens, UniProt P00533, R776C); conditions: Ba/F3 cells, EGFR R776C (PACC), Mut/WT
T6 construct: host or cells: Ba/F3

EGFR I740dupIPVAK = conditions: Ba/F3 cells, EGFR I740dupIPVAK (PACC), Mut/WT
Method: (§4) Data represent the ratio of the IC50 value for a given TKI for cells with a PACC EGFR mutation to the IC50 value for cells with wildtype EGFR.
as §2
(§5) After 48-72 hours of transduction, 2 μg/ml puromycin (Invitrogen) was added to Ba/F3 cell lines in complete RPMI. To select for EGFR positive cell lines, cells were stained with PE-EGFR (Biolegend) and sorted by FACS. After sorting, EGFR positive cells were maintained in RPMI containing 10% FBS, 1% penicillin/streptomycin, and 1 ng/ml EGF to support cell viability. Drug screening was performed as previously described^41,42. Shortly, cells were plated in 384-well plates (Greiner Bio-One) at 2000-3000 cells per well in technical triplicate. Seven different concentrations of TKIs or DMSO vehicle were added to reach a final volume of 40 μL per well. After 72 hours, 11 μL of Cell Titer Glo (Promega) was added to each well. Plates were incubated for a minimum of 10 minutes, and bioluminescence was determined using a FLUOstar OPTIMA plate reader (BMG LABTECH). Raw bioluminescence values were normalized to DMSO control treated cells, and values were plotted in GraphPad Prism. […] Drug screens were performed in technical triplicate on each plate and either duplicate or triplicate biological replicates.

EGFR S768dupSVD V769M = molecular target: T7, EGFR S768dupSVD V769M (Homo sapiens, UniProt P00533, INS768MDS/V769M); conditions: Ex20, 72 hours
T7 construct: expressed in transfected cells; host or cells: Ba/F3 cells, retroviral pBabe-Puro vector (vector made by GeneScript from EGFR S768dupSVD, c.2305G > A)

EGFR D761N = molecular target: T8, EGFR D761N (Homo sapiens, UniProt P00533, D761N); conditions: Classical-Like, 72 hours
T8 construct: expressed in transfected cells; host or cells: Ba/F3 cells, retroviral pBabe-Puro vector

EGFR D770insNPG = molecular target: T9, EGFR D770insNPG (Homo sapiens, UniProt P00533, INS770NPG); conditions: Ex20, 72 hours
T9 construct: expressed in transfected cells; host or cells: Ba/F3 cells, retroviral pBabe-Puro vector

EGFR L858R/T790M/L718Q = molecular target: T10, EGFR L858R/T790M/L718Q (Homo sapiens, UniProt P00533, L718Q/L858R/T790M); conditions: T790M-like-3R, 72 hours
T10 construct: expressed in transfected cells; host or cells: Ba/F3
Method: Data represent the ratio of the IC50 value for a given TKI for cells with a T790M-like-3R EGFR mutation to the IC50 value for cells with wildtype EGFR.
as §2
After 48-72 hours of transduction, 2 μg/ml puromycin (Invitrogen) was added to Ba/F3 cell lines in complete RPMI. To select for EGFR positive cell lines, cells were stained with PE-EGFR (Biolegend) and sorted by FACS. After sorting, EGFR positive cells were maintained in RPMI containing 10% FBS, 1% penicillin/streptomycin, and 1 ng/ml EGF to support cell viability. […] Shortly, cells were plated in 384-well plates (Greiner Bio-One) at 2000-3000 cells per well in technical triplicate. Seven different concentrations of TKIs or DMSO vehicle were added to reach a final volume of 40 μL per well. After 72 hours, 11 μL of Cell Titer Glo (Promega) was added to each well. Plates were incubated for a minimum of 10 minutes, and bioluminescence was determined using a FLUOstar OPTIMA plate reader (BMG LABTECH). Raw bioluminescence values were normalized to DMSO control treated cells, and values were plotted in GraphPad Prism. […] Drug screens were performed in technical triplicate on each plate and either duplicate or triplicate biological replicates. […] Statistical differences between groups were determined by ANOVA as described in the figure legends.

EGFR G724S T790M = molecular target: T11, EGFR G724S T790M (Homo sapiens, UniProt P00533, G724S/T790M); conditions: T790M-like-3R, 72 hours
T11 construct: expressed in transfected cells; host or cells: Ba/F3

EGFR S768I = molecular target: T12, EGFR S768I (Homo sapiens, UniProt P00533, S768I); conditions: Ba/F3 cells, EGFR S768I (PACC), Mut/WT
T12 construct: expressed in transfected cells; host or cells: Ba/F3
Method: as §4, §2
After 48-72 hours of transduction, 2 μg/ml puromycin (Invitrogen) was added to Ba/F3 cell lines in complete RPMI. To select for EGFR positive cell lines, cells were stained with PE-EGFR (Biolegend) and sorted by FACS. After sorting, EGFR positive cells were maintained in RPMI containing 10% FBS, 1% penicillin/streptomycin, and 1 ng/ml EGF to support cell viability. Drug screening was performed as previously described^41,42. Shortly, cells were plated in 384-well plates (Greiner Bio-One) at 2000-3000 cells per well in technical triplicate. Seven different concentrations of TKIs or DMSO vehicle were added to reach a final volume of 40 μL per well. After 72 hours, 11 μL of Cell Titer Glo (Promega) was added to each well. Plates were incubated for a minimum of 10 minutes, and bioluminescence was determined using a FLUOstar OPTIMA plate reader (BMG LABTECH). Raw bioluminescence values were normalized to DMSO control treated cells, and values were plotted in GraphPad Prism. […] Drug screens were performed in technical triplicate on each plate and either duplicate or triplicate biological replicates. […] Statistical differences between groups were determined by ANOVA as described in the figure legends.

EGFR S720P = molecular target: T13, EGFR S720P (Homo sapiens, UniProt P00533, S720P); conditions: Classical-Like, 72 hours
T13 construct: expressed in transfected cells; host or cells: Ba/F3 cells, retroviral pBabe-Puro vector (vector made by GeneScript from EGFR WT)

EGFR K754E = molecular target: T14, EGFR K754E (Homo sapiens, UniProt P00533, K754E); conditions: Classical-Like, 72 hours
T14 construct: expressed in transfected cells; host or cells: Ba/F3 cells, retroviral pBabe-Puro vector

EGFR L858R/L718V = molecular target: T15, EGFR L858R/L718V (Homo sapiens, UniProt P00533, L718V/L858R); conditions: Ba/F3 cells, EGFR L858R/L718V (PACC), Mut/WT
T15 construct: host or cells: Ba/F3

EGFR Ex19del/L792H = molecular target: T16, EGFR Ex19del/L792H (Homo sapiens, UniProt P00533, DEL746-750/L792H); conditions: Ba/F3 cells, EGFR Ex19del/L792H (PACC), Mut/WT
T16 construct: expressed in transfected cells; host or cells: Ba/F3
Method: as §4, §2, §5

EGFR E709A G719S = molecular target: T17, EGFR E709A G719S (Homo sapiens, UniProt P00533, E709A/G719S); conditions: Ba/F3 cells, EGFR E709A G719S (PACC), Mut/WT
T17 construct: expressed in transfected cells; host or cells: Ba/F3

EGFR G719A/R776C = molecular target: T18, EGFR G719A/R776C (Homo sapiens, UniProt P00533, G719A/R776C); conditions: Ba/F3 cells, EGFR G719A/R776C (PACC), Mut/WT
T18 construct: expressed in transfected cells; host or cells: Ba/F3

EGFR H773insNPH = molecular target: T19, EGFR H773insNPH (Homo sapiens, UniProt P00533, INS773NPH); conditions: Ex20, 72 hours
T19 construct: expressed in transfected cells; host or cells: Ba/F3 cells, retroviral pBabe-Puro vector

EGFR Ex19del T854I = molecular target: T20, EGFR Ex19del T854I (Homo sapiens, UniProt P00533, DEL746-750/T854I); conditions: Ba/F3 cells, EGFR Ex19del T854I (PACC), Mut/WT
T20 construct: expressed in transfected cells; host or cells: Ba/F3 (retroviral transduction, pBabe-Puro based vectors)

EGFR Ex19del T790M = molecular target: T21, EGFR Ex19del T790M (Homo sapiens, UniProt P00533, DEL746-750/T790M); conditions: T790M-like-3S, 72 hours
T21 construct: expressed in transfected cells; host or cells: Ba/F3

EGFR Ex19del/C797S = molecular target: T22, EGFR Ex19del/C797S (Homo sapiens, UniProt P00533, C797S/DEL746-750); conditions: Ba/F3 cells, EGFR Ex19del/C797S (PACC), Mut/WT
T22 construct: expressed in transfected cells; host or cells: Ba/F3

EGFR G724S = molecular target: T23, EGFR G724S (Homo sapiens, UniProt P00533, G724S); conditions: Ba/F3 cells, EGFR G724S (PACC), Mut/WT
T23 construct: expressed in transfected cells; host or cells: Ba/F3
Method: as §4, §2, §5

EGFR Ex19del/T790M/G724S = molecular target: T24, EGFR Ex19del/T790M/G724S (Homo sapiens, UniProt P00533, DEL746-750/G724S/T790M); conditions: T790M-like-3S, 72 hours
T24 construct: expressed in transfected cells; host or cells: Ba/F3

EGFR E709K L858R = molecular target: T25, EGFR E709K L858R (Homo sapiens, UniProt P00533, E709K/L858R); conditions: Classical-Like, 72 hours
T25 construct: expressed in transfected cells; host or cells: Ba/F3 cells, retroviral pBabe-Puro vector
Method: as §1, §2, §3

- ratio of the IC50 value for cells with a PACC EGFR mutation to the IC50 value for cells with wildtype EGFR (EGFR E709K): 0.2663
- ratio of IC50 for cells with mutant EGFR to IC50 for cells with wildtype EGFR (Mut/WT) (EGFR N771dupN G724S): 2.781
- ratio of IC50 for cells with mutant EGFR to IC50 for cells with wildtype EGFR (Mut/WT) (EGFR T725M): 0.5761
- ratio of IC50 for cells with mutant EGFR to IC50 for cells with wildtype EGFR (Mut/WT) (EGFR L858R/T790M): 0.01398
- ratio of IC50 for cells with mutant EGFR to IC50 for cells with wildtype EGFR (Mut/WT) (EGFR N771dupN): 3.012
- ratio of the IC50 value for cells with a PACC EGFR mutation to the IC50 value for cells with wildtype EGFR (EGFR R776C): 4.27
- ratio of the IC50 value for cells with a PACC EGFR mutation to the IC50 value for cells with wildtype EGFR (EGFR I740dupIPVAK): 0.5025
- ratio of IC50 for cells with mutant EGFR to IC50 for cells with wildtype EGFR (Mut/WT) (EGFR S768dupSVD V769M): 1.96
- ratio of IC50 for cells with mutant EGFR to IC50 for cells with wildtype EGFR (Mut/WT) (EGFR D761N): 0.1966
- ratio of IC50 for cells with mutant EGFR to IC50 for cells with wildtype EGFR (Mut/WT) (EGFR D770insNPG): 1.296
- ratio of IC50 for cells with mutant EGFR to IC50 for cells with wildtype EGFR (Mut/WT) (EGFR L858R/T790M/L718Q): 0.6815
- ratio of IC50 for cells with mutant EGFR to IC50 for cells with wildtype EGFR (Mut/WT) (EGFR G724S T790M): 0.1395
- ratio of the IC50 value for cells with a PACC EGFR mutation to the IC50 value for cells with wildtype EGFR (EGFR S768I): 1.09
- ratio of IC50 for cells with mutant EGFR to IC50 for cells with wildtype EGFR (Mut/WT) (EGFR S720P): 0.03397
- ratio of IC50 for cells with mutant EGFR to IC50 for cells with wildtype EGFR (Mut/WT) (EGFR K754E): 0.04901
- ratio of the IC50 value for cells with a PACC EGFR mutation to the IC50 value for cells with wildtype EGFR (EGFR L858R/L718V): 3.358
- ratio of the IC50 value for cells with a PACC EGFR mutation to the IC50 value for cells with wildtype EGFR (EGFR Ex19del/L792H): 0.02929
- ratio of the IC50 value for cells with a PACC EGFR mutation to the IC50 value for cells with wildtype EGFR (EGFR E709A G719S): 0.3574
- ratio of the IC50 value for cells with a PACC EGFR mutation to the IC50 value for cells with wildtype EGFR (EGFR G719A/R776C): 0.2899
- ratio of IC50 for cells with mutant EGFR to IC50 for cells with wildtype EGFR (Mut/WT) (EGFR H773insNPH): 1.077
- ratio of the IC50 value for cells with a PACC EGFR mutation to the IC50 value for cells with wildtype EGFR (EGFR Ex19del T854I): 1.06
- ratio of IC50 for cells with mutant EGFR to IC50 for cells with wildtype EGFR (Mut/WT) (EGFR Ex19del T790M): 0.009604
- ratio of the IC50 value for cells with a PACC EGFR mutation to the IC50 value for cells with wildtype EGFR (EGFR Ex19del/C797S): 11.45
- ratio of the IC50 value for cells with a PACC EGFR mutation to the IC50 value for cells with wildtype EGFR (EGFR G724S): 1.174
- ratio of IC50 for cells with mutant EGFR to IC50 for cells with wildtype EGFR (Mut/WT) (EGFR Ex19del/T790M/G724S): 0.02849
- ratio of IC50 for cells with mutant EGFR to IC50 for cells with wildtype EGFR (Mut/WT) (EGFR E709K L858R): 0.0818
SMILES: C=CC(=O)N1CC[C@@H](Oc2nc(Nc3ccc(N4CCC(N5CCN(C)CC5)CC4)cc3)c(C(N)=O)nc2CC)C1 [Naquotinib]

Source: patent US20240384350A1, “METHODS OF TREATING CANCER WITH KINASE INHIBITORS” (BOARD OF REGENTS, THE UNIVERSITY OF TEXAS SYSTEM, priority 2021, published 2024)
